“And” between values parts separate entries of the source, which are not always exact repeats. Identical values can stand only once. Like-named read-outs stand apart in the source and are kept apart here.

The results in this text go back to patent publication US20110112032A1, “Regulation of Brain Natriuretic Peptide and Catecholamines for the Treatment of Cardiovascular Diseases” (priority 2005, published 2011).

For test [1], the system named is rat myocardial infarct model. The format is in vivo.
Test [2] addresses norepinephrine transporter (Rattus norvegicus, UniProt Q63380). The format is cell-based.
[3] abbreviates: animal group that received labetalol.

Chain of norepinephrine transporter (Q63380 1-617): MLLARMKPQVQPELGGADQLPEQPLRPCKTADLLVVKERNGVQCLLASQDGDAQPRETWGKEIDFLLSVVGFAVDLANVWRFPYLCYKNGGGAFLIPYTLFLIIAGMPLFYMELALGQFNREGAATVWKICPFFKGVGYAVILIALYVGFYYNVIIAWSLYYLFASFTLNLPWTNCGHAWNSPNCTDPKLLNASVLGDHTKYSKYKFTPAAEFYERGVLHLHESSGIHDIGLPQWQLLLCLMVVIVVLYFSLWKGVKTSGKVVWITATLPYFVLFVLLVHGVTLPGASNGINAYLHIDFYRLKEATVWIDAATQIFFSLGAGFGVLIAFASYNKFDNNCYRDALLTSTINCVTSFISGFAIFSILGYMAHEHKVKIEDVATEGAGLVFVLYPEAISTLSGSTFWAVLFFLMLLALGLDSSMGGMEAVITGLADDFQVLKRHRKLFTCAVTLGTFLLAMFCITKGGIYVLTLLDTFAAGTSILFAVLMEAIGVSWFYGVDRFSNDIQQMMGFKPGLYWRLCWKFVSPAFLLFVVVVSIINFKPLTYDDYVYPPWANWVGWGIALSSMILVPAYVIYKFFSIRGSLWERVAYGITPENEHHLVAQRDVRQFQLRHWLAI

For `CC(CCc1ccccc1)NCC(O)c1ccc(O)c(C(N)=O)c1` (stereo not shown) [Labetalol, labetalol], in test [1] (N = 6, DPDPE 200 ng/kg iv 30 min before occlusion, labetalol 2 mg/kg iv), the “Infarct Size” value is 16.2 ± 1.7 % of LV. Besides, in test [1] (setting [3]), the “change in heart rate” value was “mild increase” and the “change in mean blood pressure compared to the other groups” value is “small reduction”. Moreover, in test [1] (rat, in vivo), the HR was 213 ± 1 bpm and 223 ± 1 bpm and 244 ± 2 bpm and 235 ± 2 bpm; the “Mean BP” value was 125 ± 2 mmHg and 100 ± 2 mmHg and 78 ± 4 mmHg and 81 ± 4 mmHg.
For `CNCCC(Oc1ccccc1OC)c1ccccc1` (stereo not shown) [nisoxetine], the “reduction of [3H]norepinephrine uptake” value in test [2] is reported as 36±4%.
Take `NC[C@H](O)c1ccc(O)c(O)c1` [norepinephrine]: in test [2], the “inhibition of [3H] norepinephrine uptake” value came out at 20% and the “reduction of [3H]norepinephrine uptake” value came to 20±5%.
Consider [D-Pen^25]-enkephalin [DPDPE], for which, in test [1] (rat, in vivo), the HR was 215 ± 1 bpm and 218 ± 1 bpm and 232 ± 1 bpm and 216 ± 1 bpm; the “Infarct Size” value is on record as 6.6 ± 1.4 % of LV; the “Mean BP” value was 125 ± 1 mmHg and 116 ± 1 mmHg and 89 ± 2 mmHg and 96 ± 1 mmHg; the “infarct-size-limiting effect in rats pretreated with labetalol” value is “nearly abolished”. In addition, the “reduction of LV infarct size compared to control” value in test [1] (rat, in vivo, iv) stood at 53%.
